Experimental data published in PubChem BioAssay AID276 (DTP/NCI, 2004).
“And” between values parts separate entries of the source, which are not always exact repeats. Equal values may be shown once. Inconclusive results and toxic doses are left out. How the source made its calls: active means survival T/C of 150% or more; inactive means T/C below 125% in these data.

Tested on: B6C3F1 mice, Lewis lung carcinoma iv, survival T/C
Assay: NCI In Vivo Anticancer Drug Screen. Data for tumor model Lewis Lung Carcinoma (intravenous) in B6C3F1 mice
Conditions: endpoint: median survival time, schedule: Q01DX009 (ip), higher = longer survival
Outline: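 Mice carrying transplanted tumors received test compound; survival in the treated group was divided by that of the vehicle-treated control group to give the T/C value.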

[1] = dose: 0.5 mg/kg/injection, vehicle: saline
[2] = dose: 1.0 mg/kg/injection, vehicle: saline
[3] = dose: 12.5 mg/kg/injection, vehicle: suspension in saline
[4] = dose: 25.0 mg/kg/injection, vehicle: suspension in saline

Measured: T/C

NC(=O)c1ccc(N)nc1
inactive: [1] 115 % of control | [2] 115 % of control

COC(=O)C[C@](O)(CCC(C)(C)O)C(=O)O[C@@H]1C(OC)=C[C@]23CCCN2CCc2cc4c(cc2[C@H]13)OCO4
inactive: dose: 0.25 mg/kg/injection, vehicle: saline 98 % of control and 104 % of control | [1] 103 % of control and 106 % of control | [2] 94 % of control and 102 % of control

CC(C)[C@]12O[C@H]1[C@@H]1O[C@]13[C@]1(O[C@H]1C[C@H]1C4=C(C(=O)OC4)[C@@H](O)C[C@@]13C)[C@@H]2O
inactive: dose: 25.0 micrograms/kg/injection, vehicle: saline + alcohol 98 % of control | dose: 50.0 micrograms/kg/injection, vehicle: saline + alcohol 110 % of control | dose: 100.0 micrograms/kg/injection, vehicle: saline + alcohol 102 % of control | dose: 200.0 micrograms/kg/injection, vehicle: saline + alcohol 88 % of control | dose: 400.0 micrograms/kg/injection, vehicle: saline + alcohol 107 % of control

CCS/C(SC)=C(/c1ccccc1)[P+](c1ccccc1)(c1ccccc1)c1ccccc1
inactive: dose: 0.12 mg/kg/injection, vehicle: Klucel (hydroxypropylcellulose) (HPC) 106 % of control | dose: 0.25 mg/kg/injection, vehicle: Klucel (hydroxypropylcellulose) (HPC) 108 % of control | dose: 0.5 mg/kg/injection, vehicle: Klucel (hydroxypropylcellulose) (HPC) 101 % of control | dose: 1.0 mg/kg/injection, vehicle: Klucel (hydroxypropylcellulose) (HPC) 104 % of control | dose: 1.5 mg/kg/injection, vehicle: Klucel (hydroxypropylcellulose) (HPC) 100 % of control | dose: 2.0 mg/kg/injection, vehicle: Klucel (hydroxypropylcellulose) (HPC) 93 % of control

C=C1C(=O)OCC1(C(=O)OCC)C(=O)OCC
inactive: dose: 4.0 mg/kg/injection, vehicle: saline with Tween-80 95 % of control | dose: 8.0 mg/kg/injection, vehicle: saline with Tween-80 103 % of control | dose: 16.0 mg/kg/injection, vehicle: saline with Tween-80 105 % of control | dose: 32.0 mg/kg/injection, vehicle: saline with Tween-80 96 % of control

CN(CCN(C)C(=O)CCOS(C)(=O)=O)C(=O)CCOS(C)(=O)=O
inactive: [3] 101 % of control | [4] 97 % of control | dose: 50.0 mg/kg/injection, vehicle: suspension in saline 102 % of control | dose: 100.0 mg/kg/injection, vehicle: suspension in saline 107 % of control

CN(C)CCC(=O)C(=Cc1ccc(O)cc1)C(=O)CCN(C)C
inactive: dose: 12.5 mg/kg/injection, vehicle: saline 97 % of control | dose: 25.0 mg/kg/injection, vehicle: saline 101 % of control | dose: 50.0 mg/kg/injection, vehicle: saline 102 % of control | dose: 100.0 mg/kg/injection, vehicle: saline 105 % of control and 106 % of control | dose: 200.0 mg/kg/injection, vehicle: saline 104 % of control and 107 % of control

CCCCCCCCCCCCCCCCCCOCC(COP(=O)([O-])OCC[N+](C)(C)C)OC (stereo unspecified)
inactive: dose: 6.25 mg/kg/injection, vehicle: suspension in saline 96 % of control | [3] 99 % of control | [4] 100 % of control

CCCCNC(C)[C@]1(O)Cc2c(O)c3c(c(O)c2[C@@H](OC2CC(N)C(O)C(C)O2)C1)C(=O)c1c(OC)cccc1C3=O (stereo partly specified)
inactive: dose: 0.62 mg/kg/injection, vehicle: water 107 % of control | dose: 1.25 mg/kg/injection, vehicle: water 114 % of control | dose: 2.5 mg/kg/injection, vehicle: water 103 % of control | dose: 5.0 mg/kg/injection, vehicle: water 115 % of control

O=C(NO)c1cc(O)c(O)c(O)c1
inactive: dose: 25.0 mg/kg/injection, vehicle: water 100 % of control | dose: 50.0 mg/kg/injection, vehicle: water 98 % of control | dose: 100.0 mg/kg/injection, vehicle: water 100 % of control | dose: 200.0 mg/kg/injection, vehicle: water 110 % of control | dose: 400.0 mg/kg/injection, vehicle: water 93 % of control
